According to patent publication US20240091215A1, “TASQUINIMOD OR A PHARMACEUTICALLY ACCEPTABLE SALT THEREOF FOR USE IN THE TREATMENT OF MYELODYSPLASTIC SYNDROME” (ACTIVE BIOTECH AB, priority 2021, published 2024):

Legend:
[1] = test system: PD-L1 in healthy and CMML MSCs; experiment: Western blot of PD-L1 in healthy and CMML MSCs; assay type: cell-based, human; details: 48 h; for PD-L1 expression in the absence of S100A9: tasquinimod alone
Protocol: Lane 1=untreated control; lane 2=treated with tasquinimod; lane 3=treated with S100A9; […] tasquinimod.
(§1) BM mononuclear cells were isolated by percoll gradient centrifugation and MSCs were grown as adherent monolayer in DMEM/10% FCS. Passages 2-5 were used for the experiments.
(§2) To mimic inflammatory conditions, in-vitro cultured MSCs were treated with recombinant S100A8, S100A9 or the S100A8/9 heterodimer (each 1.5 μg/ml) or TNF-α (10 ng/ml) in the presence or absence of tasquinimod (10 μM) for different time periods depending on the subsequent experiments. Hematopoietic stem and progenitor cells (HSPCs) for cocultures were isolated using CD34 antibody-conjugated magnetic beads, according to the manufacturer's instructions (Miltenyi Biotec) and were added in CellGro medium (CellGenix) containing stem cell factor (SCF), FLT3-L and IL-3 (10 ng/ml each).
(§3) Whole cell lysates were prepared using RIPA lysis buffer containing proteinase inhibitors. Protein concentrations were determined using the BCA Protein Assay Kit. Equal protein amounts were separated by SDS-polyacrylamide gel electrophoresis and transferred to polyvinylidene fluoride membranes for detection of specific proteins using primary antibodies for IRAK1, NF-κB-p65, gasdermin and OXPHOS overnight at 4° C., following secondary antibodies HRP-conjugated goat anti-mouse IgG (Invitrogen) or donkey anti-rabbit IgG (GE Healthcare), respectively. The blots were incubated with ECL Plus Western Blotting reagent (Amersham) and the signals captured using a LAS3000 imaging system.

[2] = test system: IRAK1, NF-κB-p65 and gasdermin in MDS MSCs; experiment: Western blot of IRAK1, NF-κB-p65 and gasdermin in MDS MSCs treated with TNF-α with or without tasquinimod; assay type: cell-based, human; details: MSC cultures, TNF-α 10 ng/ml, tasquinimod 10 μM, 48 h
Protocol: GAPDH (38 kDa) served as reference protein. Lane 1=treated with TNF-α; lane 2=treated with TNF-α and tasquinimod.
as §2, §3

[3] = test system: MSCs; experiment: Seahorse Metabolic Extracellular Flux Profiling (Cell Mito Stress Test); assay type: cell-based, human
Protocol: The impact of tasquinimod on cellular metabolism is investigated by using the Seahorse system (Agilent Technologies). MSCs are seeded in Seahorse 96-well plates. Cell Mito Stress Test (XF Cell Mito Stress Test Kit, Agilent Technologies) is performed following the standard protocol. Oxygen consumption rate (OCR) and Extracellular Acidification Rate (ECAR) are detected after injection of oligomycin ([…]), carbonyl cyanide-p-trifluoromethoxyphenylhydrazone (FCCP, […]), and the combination of rotenone and antimycin (Rot/AA, […]). OCR is measured with an XF96 analyzer and the Wave software (version 2.2.0).

[4] = test system: MDS MSC co-cultured with hematopoietic progenitor cells; experiment: CFU assay with cells harvested after one week of MSC/HSPC co-culture; assay type: cell-based, human; details: colonies counted after 2 weeks
Text: FIG. 6b is a bar chart showing the number of colonies/300 cells in CFU assays performed using MDS MSC cells cocultured with hematopoietic progenitor cells, harvested after one week of co-culture in the presence of S100A9 or in the presence of both S100A9 and tasquinimod or in the absence of both S100A9 and tasquinimod (“control”), with 300 cells being plated in enriched methylcellulose medium with recombinant cytokines (MethoCult™ H4435, STEMCELL Technologies). Colonies were counted after 2 weeks and classified under a microscope or with the STEMvision™ system (STEMCELL Technologies). FIG. 6c is a bar chart showing the number of colonies/300 cells in CFU assays performed using MDS MSC cells and hematopoietic progenitor cells, harvested after one week of co-culture in the presence (“TASQ”) or absence (“without”) of tasquinimod, with 300 cells being plated in enriched methylcellulose medium with recombinant cytokines (MethoCult™ H4435, STEMCELL Technologies). Colonies were counted after 2 weeks and classified under a microscope or with the STEMvision™ system (STEMCELL Technologies). […] Colonies were counted after 2 weeks and classified under a microscope or with the STEMvision™ system (STEMCELL Technologies).

[5] = test system: IRAK1, NF-κB-p65 and gasdermin in MDS MSCs; experiment: Western blot of IRAK1, NF-κB-p65 and gasdermin in MDS MSCs treated with S100A9 with or without tasquinimod; assay type: cell-based, human; details: S100A9 1.5 μg/ml, tasquinimod 10 μM, 48 h
Protocol: GAPDH (38 kDa) served as reference protein. Lane 1=untreated control; lane 2=treated with S100A9; lane 3=treated with S100A9/tasquinimod.
as §1, §2, §3

[6] = test system: PD-L1; details: Oncoimmunology 2016, Vol. 5, No. 6, e1145333; cited from earlier work
[7] = test system: MSCs; experiment: CellROX Deep Red Flow Cytometry Assay of ROS levels; assay type: cell-based, human
Protocol: The inflammatory micromilieu of the myelodysplastic bone marrow leads to increased ROS levels which may cause aberrant cellular function. Therefore, the effect of tasquinimod on ROS levels in MSCs is assayed using the CellROX™ Deep Red Flow Cytometry Assay kit (Thermo Fisher) according to the manufacturer's instructions.

[8] = test system: αSMA and NF-κB in MSCs; experiment: Immunofluorescence staining and confocal microscopy of S100A9/tasquinimod treated MSCs; assay type: cell-based, human
Protocol: as §2
S100A9/tasquninimod treated MSCs were fixed with 4% paraformaldehyde. Cells were permeabilized using PBS containing 0.1% Triton™ X-100 (T-PBS), blocked with T-PBS containing 10% FCS and 1% HSA (IF-Buffer) and incubated over night at 4° C. with antibodies against αSMA, NFκB or PD-L1. Secondary antibodies polyclonal sheep-anti-rabbit-Cy3 or polyclonal goat-anti-mouse-Cy2 were incubated for 1 h at room temperature. Cell nuclei were counterstained with DAPI. Imaging analysis was performed by confocal microscopy (LSM800, Carl Zeiss) and ZEN software.

[9] = test system: MDS MSC co-cultured with hematopoietic progenitor cells; experiment: CAF-C assay, MSC/HSPC co-culture with pre-treated stromal layers; assay type: cell-based, human; details: stromal layers pre-treated with S100A9 and tasquinimod, one to four weeks
Protocol: FIG. 6a is a bar chart showing quantification of CAF-C when co-culturing MDS MSC with hematopoietic progenitor cells, after one, two, three and four weeks without the presence of either S100A9 or tasquinimod (“without”), in the presence of tasquinimod (TASQ), in the presence of S100A9 (S100A9), and in the presence of both s100A9 and tasquinimod (S100A9+TASQ).
as §2
CAF-C assays were performed over four weeks using pre-treated healthy or MDS MSC layers. One thousand magnetically isolated CD34+ cells were added in StemMACS™ HSC-CFU complete medium (Miltenyi Biotec).

[10] = test system: MDS MSCs; experiment: MSC differentiation assays (adipogenic, osteogenic); assay type: cell-based, human
Protocol: Adipogenic and osteogenic differentiation capacity is an important functional feature of MSCs and often altered in MDS leading to changes in the bone metabolism. Therefore, the effect of tasquinimod on adipogenic and osteogenic differentiation was assayed as follows.
MSCs were seeded in 6-well plates (5×10^3 MSCs/cm^2), cultured to subconfluency for approximately 4 days in DMEM, and subjected to adipogenic (0.5 mM […], 1 μM dexamethasone, 100 μM indomethacin, 10 μM insulin) or osteogenic (0.1 μM dexamethasone, 0.2 mM ascorbate-2-phosphate, 10 mM β-glycerophosphate) differentiation. […] Differentiation was graded according to microscopic analysis as follows: 0=no differentiation; 1=25% of the culture wells contain differentiated cells; 2=50% of the culture wells contain differentiated cells; 3=75% of the culture wells contain differentiated cells; 4=100% of the culture wells contain differentiated cells. Osteogenesis was determined by van Kossa staining, and the catalytic activity of ALP was determined.

[11] = test system: PD-1; experiment: PD-1 expression (RT-PCR) in MSC/HSPC co-cultures; assay type: cell-based, human; details: summary statement; PD-1 measured in co-cultured HSPCs
Protocol: as §2
[…] Relative target quantity was determined using the comparative CT (ΔΔCT) method. RT-PCR was performed using SYBR Green/ROX PCR master mix (Thermo) and target specific primers for caspasel, IL1β, IL18, PD-L1, PD-1 and GAPDH as housekeeping gene on a Taqman™ Fast 3500 cycler (Applied Biosystems). Amplicons were normalized to endogenous GAPDH control.

[12] = test system: IL-1β, IL-18, Casp1 and PD-L1 mRNA in MDS MSCs; experiment: RT-PCR mRNA expression of IL-1β, IL-18, caspase 1 and PD-L1 in MDS MSCs treated with S100A9 with or without tasquinimod; assay type: cell-based, human; details: 48 h
Protocol: FIG. 3 is a bar chart representing the mRNA expression levels of IL-1β, IL-18, Casp1 and PD-L1 by real-time PCR of MDS MSCs after 48 h treatment with tasquinimod only (TASQ), with S100A9 only (S100A9), or with both S100A9 and tasquinimod (S100A9+TASQ). Amplicons for IL-1β, IL-18, Casp1 and PD-L1 were normalized to endogenous GAPDH expression and the untreated MSCs were set to 1 (=control).
as §1, §2
RNA was isolated from MSC using RNeasy Mini Kit (Qiagen) and reverse transcribed into cDNA using RevertAid™ cDNA synthesis kit (Thermo Fisher) with oligo-dT primers. Relative target quantity was determined using the comparative CT (ΔΔCT) method. RT-PCR was performed using SYBR Green/ROX PCR master mix (Thermo) and target specific primers for caspasel, IL1β, IL18, PD-L1, PD-1 and GAPDH as housekeeping gene on a Taqman™ Fast 3500 cycler (Applied Biosystems). Amplicons were normalized to endogenous GAPDH control.

[13] = test system: genetically modified mice (e.g. B6; 129-Trp53bp^tm1Jc/J and NUP98/HOXD13); experiment: In vivo validation in genetically modified mice developing signs of MDS; details: MDS mouse models, blood counts weekly, bone marrow after 20 weeks
Protocol: The promising in vitro results are validated in vivo in different mouse models. In these models, genetically modified mice (e.g. B6; 129-Trp53bp^tm1Jc/J and NUP98/HOXD13) which develop typical signs of MDS such as anemia and cytopenia are treated with tasquinimod. Peripheral blood counts are recorded weekly and finally the bone marrow is analysed after 20 weeks.

[14] = MSCs, induced by S100A9, tasquinimod 10 μM
[15] = MDS MSCs, S100A9-induced increase, tasquinimod 10 μM

COc1cccc2c1c(O)c(C(=O)N(C)c1ccc(C(F)(F)F)cc1)c(=O)n2C [tasquinimod, 4-hydroxy-5-methoxy-N,1-dimethyl-2-oxo-N-[4-(trifluoromethyl)phenyl]-1,2-dihydroquinoline-3-carboxamide]
PD-L1 expression in the absence of S100A9 ([1]; MSC from CMML MDS patients): downregulation of PD-L1
PD-L1 expression in the absence of S100A9 ([1]; MSC from healthy volunteers): downregulation of PD-L1
PD-L1 expression at the protein level [1, 14]: suppressed
expression of IRAK1 (Western blot) [2]: inhibited the expression
expression of NF-κB-p65 (Western blot) [2]: inhibited the expression
expression of gasdermin (Western blot) [2]: inhibited the expression
Spare Respiratory Capacity [3]: improved
cellular stress [3]: reduced cellular stress
number of CFUs [4]: increased
expression of IRAK1 (Western blot) [5]: inhibited the expression
expression of NF-κB-p65 (Western blot) [5]: inhibited the expression
expression of gasdermin (Western blot) [5]: inhibited the expression
expression of PD-L1, previously reported [6]: upregulate expression of PD-L1
ROS levels in MSCs [7]: block elevated ROS levels
NF-kB (nuclear) expression in MSCs [8]: reduces
αSMA expression in MSCs [8]: reduces
number of CAF-Cs [9]: increased
decrease in number of adipocytes (Oil red O positive cells) ([10]; MDS MSCs, after 14 days of cultivation in differentiation medium): 25-50%
adipogenic differentiation ([10]; MSC differentiation assay): reducing
osteogenic differentiation ([10]; MSC differentiation assay): improving
PD-1 expression [11]: inhibition
mRNA expression of IL-1β [12, 15]: this increase was inhibited
mRNA expression of IL-18 [12, 15]: this increase was inhibited
mRNA expression of caspase 1 [12, 15]: this increase was inhibited
PD-L1 expression at the mRNA level [12, 14]: suppressed
restoration of functional hematopoiesis [13]: partly restore functional hematopoiesis
